Drawing on ChEMBL document CHEMBL3526048, “In vitro metabolism of rivoglitazone, a novel peroxisome proliferator-activated receptor γ agonist, in rat, monkey, and human liver microsomes and freshly isolated hepatocytes” (Drug Metab Dispos, 2011), this text covers Drug metabolism for two compounds.

For series [1], the system named is Liver microsome. The series is described as follows: Drug level in human liver microsomes treated with [14C]-rivoglitazone at 20 uM after 2 to 4 hrs by radio-HPLC/LC-MS/MS analysis in presence of UDPGA, UDPGA/SAM and NADPH-generating system. Type of series: ADME. A general note: Liver microsomes are vesicles of endoplasmic reticulum, rich in cytochrome P450 enzymes.

Series [2] can be described thus: Drug metabolism in cynomolgus monkey liver microsomes assessed as formation of 3-(4-((6-methoxy-1-methyl-1H-benzo[d]imidazol-2-yl)methoxy)phenyl)-2-(methylthio)propanamide at 20 uM after 2 hrs by radio-HPLC/LC-MS/MS analysis in presence of NADPH-generating system/SAM. The series is classed as ADME, Macaca fascicularis.
A short description of series [3]: Drug metabolism in po dosed monkey liver microsomes assessed as formation of 5-(4-((6-methoxy-1H-benzo[d]imidazol-2-yl)methoxy)benzyl)thiazolidine-2,4-dione. The series is classed as ADME, Macaca mulatta. Conditions: rhesus monkey.
For series [4], the target named is T1, Cytochrome P450 2C8 (Homo sapiens, UniProt P10632).
T1 sequence (P10632 whole entry): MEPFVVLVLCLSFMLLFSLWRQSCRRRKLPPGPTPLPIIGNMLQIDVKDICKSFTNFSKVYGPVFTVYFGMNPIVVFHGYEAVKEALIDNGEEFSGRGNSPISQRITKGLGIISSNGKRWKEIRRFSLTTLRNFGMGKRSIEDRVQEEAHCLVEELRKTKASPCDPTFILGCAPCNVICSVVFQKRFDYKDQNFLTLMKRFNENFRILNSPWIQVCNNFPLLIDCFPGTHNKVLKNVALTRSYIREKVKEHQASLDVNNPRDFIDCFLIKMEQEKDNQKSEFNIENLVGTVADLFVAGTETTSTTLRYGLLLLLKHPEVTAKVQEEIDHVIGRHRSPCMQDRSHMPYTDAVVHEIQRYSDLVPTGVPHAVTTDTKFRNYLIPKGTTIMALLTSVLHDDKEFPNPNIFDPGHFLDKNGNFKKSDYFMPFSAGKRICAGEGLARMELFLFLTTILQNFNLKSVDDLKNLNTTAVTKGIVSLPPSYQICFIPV
The series is described as follows: Activity of human CYP2C8 expressed in microsomes isolated from baculovirus infected insect cell assessed as enzyme-mediated 3-(4-((6-methoxy-1-methyl-1H-benzo[d]imidazol-2-yl)methoxy)phenyl)-2-(methylsulfonyl)propanamide formation at 20 uM after 2 hrs by radio-HPLC/LC-MS/MS analysis in presence of NADPH-generating system/SAM. The series is classed as ADME.

The target of series [5] is T2, UDP-glucuronosyltransferase 2B7 (Homo sapiens, UniProt P16662).
T2 sequence (P16662 whole entry): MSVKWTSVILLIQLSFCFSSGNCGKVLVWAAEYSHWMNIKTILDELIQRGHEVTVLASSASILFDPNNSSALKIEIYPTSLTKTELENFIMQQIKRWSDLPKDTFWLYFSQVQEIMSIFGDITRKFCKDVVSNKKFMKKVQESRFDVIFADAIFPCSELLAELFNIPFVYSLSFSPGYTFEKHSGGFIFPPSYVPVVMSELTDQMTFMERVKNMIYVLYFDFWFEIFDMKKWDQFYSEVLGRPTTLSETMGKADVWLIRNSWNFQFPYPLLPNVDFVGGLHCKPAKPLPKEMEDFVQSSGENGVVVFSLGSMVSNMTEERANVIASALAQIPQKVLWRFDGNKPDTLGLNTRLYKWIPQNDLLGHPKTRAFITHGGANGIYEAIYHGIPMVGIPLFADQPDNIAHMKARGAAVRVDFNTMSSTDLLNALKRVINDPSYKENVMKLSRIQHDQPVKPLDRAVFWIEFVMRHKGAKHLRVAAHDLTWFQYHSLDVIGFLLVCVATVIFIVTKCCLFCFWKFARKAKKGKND
The series is described as follows: Activity of human UGT2B7 expressed in microsomes isolated from baculovirus infected insect cell assessed as enzyme-mediated 3-(4-((6-methoxy-1-methyl-1H-benzo[d]imidazol-2-yl)methoxy)phenyl)-2-(methylsulfonyl)propanamide formation at 20 uM after 4 hrs by radio-HPLC/LC-MS/MS analysis in presence of NADPH-generating system/SAM. The series is classed as ADME.

Series [6] addresses Cytochrome P450 2D6 (Homo sapiens, UniProt P10635). The series is described as follows: Activity of human CYP2D6 expressed in microsomes isolated from baculovirus infected insect cell assessed as enzyme-mediated 5-(4-((6-hydroxy-1-methyl-1H-benzo[d]imidazol-2-yl)methoxy)benzyl)thiazolidine-2,4-dione formation at 20 uM after 2 hrs by radio-HPLC/LC-MS/MS analysis in presence of NADPH-generating system and NADPH-generating system/SAM. Type of series: ADME.

The target in series [7] is T3, UDP-glucuronosyltransferase 1A8 (Homo sapiens, UniProt Q9HAW9).
T3 sequence (Q9HAW9 whole entry): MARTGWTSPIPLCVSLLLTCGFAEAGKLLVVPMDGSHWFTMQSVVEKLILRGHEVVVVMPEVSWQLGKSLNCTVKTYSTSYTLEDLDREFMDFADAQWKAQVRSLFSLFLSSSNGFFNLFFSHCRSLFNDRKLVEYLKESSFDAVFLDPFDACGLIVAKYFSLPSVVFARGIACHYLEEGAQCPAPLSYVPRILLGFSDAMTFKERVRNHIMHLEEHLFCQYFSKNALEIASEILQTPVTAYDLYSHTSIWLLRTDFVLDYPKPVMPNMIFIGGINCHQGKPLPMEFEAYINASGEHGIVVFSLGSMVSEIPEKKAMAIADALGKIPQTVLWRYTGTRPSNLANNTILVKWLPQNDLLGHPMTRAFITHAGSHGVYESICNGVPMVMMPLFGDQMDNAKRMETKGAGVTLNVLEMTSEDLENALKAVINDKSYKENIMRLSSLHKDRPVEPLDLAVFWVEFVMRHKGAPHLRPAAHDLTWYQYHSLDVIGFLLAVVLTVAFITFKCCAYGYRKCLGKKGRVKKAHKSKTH
The series is described as follows: Activity of human UGT1A8 expressed in microsomes isolated from baculovirus infected insect cell assessed as enzyme-mediated (2S,3S,4S,5R,6R)-3,4,5-trihydroxy-6-(5-(4-((6-methoxy-1-methyl-1H-benzo[d]imidazol-2-yl)methoxy)benzyl)-2,4-dioxothiazolidin-3-yl)tetrahydro-2H-pyran-2-carboxylic acid formation at 20 uM after 4 hrs by radio-HPLC/LC-MS/MS analysis in presence of UDPGA. Type of series: ADME.

For series [8], the target named is Cytochrome P450 3A4 (Homo sapiens, UniProt P08684). The series is described as follows: Activity of human CYP3A4 expressed in microsomes isolated from baculovirus infected insect cell assessed as enzyme-mediated (2S,3S,4S,5R,6R)-6-((1-carboxy-2-(4-((6-methoxy-1-methyl-1H-benzo[d]imidazol-2-yl)methoxy)phenyl)ethylthio)carbonylamino)-3,4,5-trihydroxytetrahydro-2H-pyran-2-carboxylic acid formation at 20 uM after 2 hrs by radio-HPLC/LC-MS/MS analysis in presence of NADPH-generating system/SAM. Type of series: ADME.
Cytochrome P450 3A4, sequence (P08684 whole entry): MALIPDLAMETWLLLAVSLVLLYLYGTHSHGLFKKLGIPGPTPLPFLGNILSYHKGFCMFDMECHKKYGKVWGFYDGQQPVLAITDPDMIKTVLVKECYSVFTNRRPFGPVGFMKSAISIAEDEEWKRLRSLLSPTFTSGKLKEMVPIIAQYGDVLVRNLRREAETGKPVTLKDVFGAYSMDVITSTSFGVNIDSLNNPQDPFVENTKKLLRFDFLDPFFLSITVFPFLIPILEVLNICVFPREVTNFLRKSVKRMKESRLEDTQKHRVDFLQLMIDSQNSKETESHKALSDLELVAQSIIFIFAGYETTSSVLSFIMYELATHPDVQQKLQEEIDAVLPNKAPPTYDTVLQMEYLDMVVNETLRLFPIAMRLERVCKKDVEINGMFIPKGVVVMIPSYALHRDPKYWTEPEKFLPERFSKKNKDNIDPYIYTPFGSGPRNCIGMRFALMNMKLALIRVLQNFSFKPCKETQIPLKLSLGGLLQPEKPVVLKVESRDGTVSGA

The nature of series [9]: Drug metabolism in monkey hepatocytes assessed as formation of 5-(4-((6-methoxy-1H-benzo[d]imidazol-2-yl)methoxy)benzyl)thiazolidine-2,4-dione at 30 uM after 3 hrs by radio-HPLC/LC-MS/MS analysis in presence of NADPH-generating system and NADPH-generating system/SAM. Conditions: cynomolgus monkey.
The nature of series [10]: Drug metabolism in monkey hepatocytes assessed as formation of 2-mercapto-3-(4-((6-methoxy-1-methyl-1H-benzo[d]imidazol-2-yl)methoxy)phenyl)propanamide at 30 uM after 3 hrs by radio-HPLC/LC-MS/MS analysis in presence of NADPH-generating system and NADPH-generating system/SAM. Conditions: cynomolgus monkey.

Molecules are shown by their SMILES.

Cytochrome P450 2D6, sequence (P10635 whole entry): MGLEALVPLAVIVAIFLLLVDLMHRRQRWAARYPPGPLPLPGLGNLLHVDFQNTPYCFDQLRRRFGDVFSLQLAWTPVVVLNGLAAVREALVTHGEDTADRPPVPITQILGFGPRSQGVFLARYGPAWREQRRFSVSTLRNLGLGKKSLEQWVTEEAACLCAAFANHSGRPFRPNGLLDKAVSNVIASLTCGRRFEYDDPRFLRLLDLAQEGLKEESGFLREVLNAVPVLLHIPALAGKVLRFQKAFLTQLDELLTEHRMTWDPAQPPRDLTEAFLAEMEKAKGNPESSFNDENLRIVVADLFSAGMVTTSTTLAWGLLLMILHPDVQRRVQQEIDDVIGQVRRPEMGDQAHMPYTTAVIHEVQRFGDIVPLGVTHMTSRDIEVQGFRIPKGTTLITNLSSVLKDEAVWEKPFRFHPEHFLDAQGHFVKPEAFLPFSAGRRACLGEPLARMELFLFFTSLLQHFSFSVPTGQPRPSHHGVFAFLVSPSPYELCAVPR

Consider `COc1ccc2nc(COc3ccc(CC(S)C(=O)O)cc3)n(C)c2c1` (stereo not given), for which the Drug metabolism entry in series [1] is listed as “metabolite_detected”.

As for `COc1ccc2nc(COc3ccc(C[14CH]4SC(=O)NC4=O)cc3)n(C)c2c1.Cl` (racemic), the Drug metabolism entry is “metabolite_detected” in series [2]; “metabolite_detected” in series [3]; “metabolite_not_detected” in [4]; “metabolite_not_detected” in series [5]; “metabolite_detected” in series [6]; “metabolite_not_detected” in series [7]. Further, the Drug metabolism entry in series [8], in series [9] and in [10] was “metabolite_not_detected” in each case.
